These are literature values, as cited in patent publication US5681568A, “Device for delivery of substances and methods of use thereof” (Cambridge NeuroScience, Inc., priority 1994, dated 1997).

For series [1], the system named is hypoxic/ischemic brain injury. Conditions: rat.
The conditions of series [2]: in vivo.
For series [3] the following is noted: presence of heparin.
The test system of series [4] is experimental cerebral ischemia. The settings on record: after experimental cerebral ischemia, rabbit.
A further series deals with nerve regeneration. The settings on record: in vivo.

Consider “IGF-1: insulin-like growth factors (IGFs)”, for which, in series [1], the “effects in models of hypoxic/ischemic brain injury” value is “therapeutically relevant effects”. For the compound `CSCC[C@@H]1NC(=O)[C@H](CC(C)C)NC(=O)[C@H](CCCNC(=N)N)NC(=O)[C@H](CO)NC(=O)[C@@H]2CSSC[C@@H]3NC(=O)[C@H](CO)NC(=O)CNC(=O)[C@H]([C@@H](C)O)NC(=O)[C@H](CSSC[C@H](N)C(=O)N[C@@H](CCCCN)C(=O)NCC(=O)N[C@@H](CCCCN)C(=O)NCC(=O)N[C@@H](C)C(=O)N[C@@H](CCCCN)C(=O)N2)NC(=O)[C@H](CSSC[C@@H](C(N)=O)NC(=O)[C@H](CCCCN)NC(=O)CNC(=O)[C@H](CO)NC(=O)[C@H](CCCNC(=N)N)NC3=O)NC(=O)[C@H](CC(=O)O)NC(=O)[C@H](Cc2ccc(O)cc2)NC1=O` [SNX111], the toxic side effects entry in series [2] was “severe hypotension”. Turning to “acidic FGF: member of the fibroblast growth factor (FGF) family known to associate with heparin”, the “effect of heparin on the factor's activity” value in series [3] is on record as “can potentiate the factor's activity”. With TGFβ1: Transforming growth factor β1, the “effect on infarct size” value in series [4] was “reduce infarct size”. In addition, the “effects in models of hypoxic/ischemic brain injury” value in series [1] is reported as “therapeutically relevant effects”.

With bFGF: Basic fibroblast growth factor, the “effect on nerve regeneration” value in the series on nerve regeneration is “therapeutic relevant effect on nerve regeneration”.
